Where a name gives a salt, the structure may show the parent alone.
Columns and labels:
[1] = system: human oral cancer cells, PC3 prostate cancer cells and MDCK cells; details: cited from earlier work
[2] = system: BHK cells expressing Myc-B-Raf V600E; assay: Signaling in cells expressing constitutively active BRaf, Western blotting; format: cell-based, hamster; details: 6 μg/mL, 48 h, serum starved BHK cells
Protocol: (§1) FIG. 6: Illustrates that fendiline HCl inhibition occurs at the level of Ras: Whole cell lysates from serum starved BHK cells expressing vector control, FLAG-C-Raf-DD-CAAX or Myc-B-Raf V600E treated with vehicle or fendiline HCl (6 μg/mL) for 48 h were analyzed by quantitative Western blotting. Representative Western blots of c-Raf, pMEK, pERK and Actin (loading control) are shown. Data is shown as mean±SEM from 3-4 independent experiments. Statistical significance was calculated using one way ANOVA and Student's T-test. (*=p<0.05), wherein experimentation was performed in accordance with principles described herein;
(§2) Preparation of whole-cell lysates: cells were lysed in Buffer B (50 mM Tris [pH 7.5], 75 mM NaCl, 25 mM NaF, 5 mM MgCl2, 5 mM EGTA, 1 mM dithiothreitol, 100 μM NaVO4, 1% Nonidet P-40 plus protease inhibitors). Cellular fractionation: cells were incubated in Buffer A (10 mm Tris-HCl, pH 7.5, 25 mm NaF, 5 mm MgCl2, 1 mm EGTA, 1 mm dithiothreitol, 100 μm NaVO4 plus protease inhibitors) for 30 minutes on ice and lysed by passing through a 27 G needle 30 times. The post nuclear supernatant was centrifuged at 100,000 g for 30 minutes and the membrane pellet was resuspended in Buffer A containing 1% Triton X-100.
(§3) Quantification of intensities was performed using FluorChemQ software.

[3] = system: cells expressing constitutively active N-Ras; assay: Signaling downstream of oncogenic N-ras; format: cell-based; details: data not shown
Protocol: as §2, §3

[4] = target: T1, GFP-H-rasG12V in MDCK or BHK cells (Homo sapiens, UniProt P01112, G12V); assay: Cellular fractionation (P100/S100) with quantitative Western blotting, GFP-H-rasG12V; format: cell-based, canine (MDCK), hamster (BHK); details: 4 μg/mL for MDCK and 6 μg/mL for BHK, 48 hours, vs vehicle
T1 construct: MDCK and BHK cells expressing GFP-tagged full length constitutively active Ras (G12V) proteins; expressed in transfected cells
Protocol: . Following treatment, membrane (P100) and soluble (S100) protein fractions were prepared and analyzed by quantitative Western blotting. Shown are representative Western blots (showing GFP-Ras) of membrane and soluble protein fractions from 3 independent experiments.
as §2, §3

[5] = system: BHK cells expressing constitutively active CRaf (FLAG-C-Raf-DD-CAAX); assay: Signaling in cells expressing constitutively active CRaf, Western blotting; format: cell-based, hamster; details: 6 μg/mL, 48 h, serum starved BHK cells
Protocol: as §1, §2, §3

[6] = target: T2, mGFP-tagged H-rasG12V in BHK cells (Homo sapiens, UniProt P01112, G12V); assay: Immuno-electron microscopy and spatial analysis of plasma membrane sheets, H-rasG12V; format: cell-based, hamster; details: 6 μg/mL, 48 h
T2 construct: BHK cells expressing GFP-tagged full length constitutively active Ras (G12V) proteins; expressed in transfected cells
Protocol: FIG. 4: Illustrates that fendiline HCl alters plasma membrane association and nanoclustering of K-ras: Plasma membrane sheets were generated from cells expressing GFP-K-rasG12V or GFP-H-rasG12V. Cells were treated with vehicle or fendiline HCl (6 μg/mL) for 48 h. Plasma membrane sheets were labeled with anti-GFP antibody conjugated to 4.5 nm gold. The plasma membrane sheets were imaged in an electron microscope and the spatial distribution of the gold labeling was analyzed using Ripley's K-function. Maximum L(r)-r values above the 99% confidence interval (C.I.) for complete spatial randomness (CSR) indicate clustering at that value of r. […] Significant differences from the control pattern for fendiline treated cells were assessed using bootstrap tests, wherein experimentation was performed in accordance with principles described herein;
Immuno-EM and spatial analysis were conducted exactly as described previously (Hancock, J. F., and Prior, I. A. (2005). Electron microscopic imaging of Ras signaling domains. Methods 37, 165-172; Prior, I. A., Muncke, C., Parton, R. G., and Hancock, J. F. (2003). Direct visualization of Ras proteins in spatially distinct cell surface microdomains. J Cell Biol 160, 165-170). […] Intact 1-μm^2 areas of the plasma membrane sheet were identified using ImageJ, and the x-y coordinates of the gold particles were determined. […]

[7] = system: BHK cells stably expressing K-rasG12V; assay: Signaling downstream of oncogenic K-ras by quantitative Western blotting; format: cell-based, hamster; details: 6 μg/mL, 48 h, K-rasG12V BHK cells
Protocol: FIG. 5: Illustrates that fendiline HCl inhibits Raf kinase activity and signaling downstream of oncogenic K-ras: BHK cells stably expressing K-rasG12V were treated with vehicle or fendiline HCl (6 μg/mL) for 48 h. (A) Raf kinase activity in membrane fractions prepared from the cells was measured in a coupled […] kinase assay. Data is shown as mean±SEM from 3 independent experiments. (B) ppMEK and ppERK in soluble protein fraction and pAkt levels in membrane protein fraction were measured by quantitative Western blotting. Actin and Akt were used as loading controls for soluble and membrane fractions, respectively. A representative blots are shown. Data is shown as mean±SEM from 3-4 independent experiments. Statistical significance was calculated using one way ANOVA and Student's T-test. (*=p<0.05), wherein experimentation was performed in accordance with principles described herein;
as §2, §3

CC(NCCC(c1ccccc1)c1ccccc1)c1ccccc1 (stereo not shown) [fendiline HCl]
intracellular Ca2+ [1]: increase intracellular Ca^2+
signaling downstream of constitutively active BRaf [2]: inhibited signaling downstream of constitutively active BRaf
signaling downstream of oncogenic N-ras [3]: had no effect on signaling downstream of oncogenic N-ras
localization of GFP-H-rasG12V (fractionation) [4]: does not alter the localization of GFP-H-rasG12V
signaling downstream of constitutively active CRaf [5]: had no effect on signaling downstream of constitutively active CRaf
clustering of H-rasG12V on plasma membrane [6]: reduced clustering of both K- and H-rasG12V proteins
membrane association of H-rasG12V (EM gold labeling) [6]: slightly increases membrane association of H-rasG12V
pAkt levels ([7]; membrane fraction): decreases the pAkt levels, although not statistically significant
cellular levels of pERK ([7]; vs vehicle): significantly reduces
cellular levels of pMEK ([7]; vs vehicle): significantly reduces

From patent US9474730B2, “Methods and compositions for use with K-ras mediated disorders” (Board of Regents of the University of Texas System, priority 2012, dated 2016)
